Experimental data taken from patent US20090069324A1, “CHEMICAL INHIBITORS OF BFL-1 AND RELATED METHODS” (The Burnham Institute, priority 2007, published 2009).
Values joined by “and” are separate entries in the source; they are usually repeats but may differ in a detail not shown here. Equal entries are not always repeated.

Tests used:
Bfl-1 [1] = target: T1, Bfl-1 (Homo sapiens, UniProt Q16548); test: Bfl-1 fluorescence polarization assay (FPA/FP), competition with FITC-Bid BH3 peptide; assay type: binding; settings: for Bfl-1 FP assay, activity in words: Bfl-1/FITC-Bid
T1 construct: lacking their C-terminal transmembrane domains (approximately last 20 amino-acids); made in house; host or cells: XL-1 Blue cells (E. coli), pGEX 4T-1
T1 sequence (Q16548 1-155 limits assumed): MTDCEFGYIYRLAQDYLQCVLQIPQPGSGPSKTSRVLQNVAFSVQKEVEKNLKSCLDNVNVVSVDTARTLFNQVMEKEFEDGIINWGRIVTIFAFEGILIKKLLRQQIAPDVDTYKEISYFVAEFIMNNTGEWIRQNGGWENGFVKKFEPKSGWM
Method: Fluorescence polarization assays (FPA). To determine the binding affinity of anti-apoptotic Bcl-2 polypeptides to FITC-conjugated Bid BH3 peptide, fluorescence polarization assays (FPAs) were performed according to published procedures (Zhai et al., Biochem. J. 376:229-236 (2003)). […] Fluorescence polarization was measured after 10 min using an Analyst™ AD Assay Detection System (LJL Biosystem, Sunnyvale, Calif.) in phosphate-buffered saline (PBS) (pH 7.4). The IC50 determinations were performed using GraphPad Prism software (GraphPad, Inc., San Diego, Calif.).
Competition assays. Using the same procedure outlined above, 100 nM of GST-Bfl-1 protein were incubated with the compounds at 50 μM concentration for 30 min. Then, 5 nM of FITC-Bid BH3 peptide was added. Fluorescence polarization was measured after 10 min. […]

Bfl-1 [2] = target: T1, Bfl-1; test: Bfl-1 TR-FRET assay (FITC-Bid, Tb-anti-GST antibody); assay type: binding; settings: for Bfl-1 TR-FRET assay, activity in words: Bfl-1/FITC-Bid
Method: TR-FRET assay. For confirmation of FPA results, a TR-FRET assay utilizing terbium- (Tb-) labeled anti-GST antibody (Th-Ab) was developed. […] The reaction mixture was preincubated for 1 h, and TR-fluorescence (TRF) was measured on an M5 plate reader (Molecular Devices) using excitation at 340 nm and emission at […]. The measurements were averaged from 5 readings during 1 ms after an initial delay 0.1 ms. TR-FRET signal was calculated as the ratio of TR-Fluorescence at 520 nm to TR-Fluorescence at […].
For Bfl-1 TR-FRET assays, Bfl-1 protein and FITC-Bid peptide (FITC-Ahx-[…]) (SEQ ID NO: 1) were utilized. Terbium-anti-GST antibody (Tb-anti-GST Ab) was obtained from Invitrogen (San Diego Calif.). The assay buffer contained 25 mM Bis-Tris, pH 7.0, 1 mM TCEP, and 0.005% Tween 20. The Tb-Ab buffer contained 2.5 nM Tb-anti-GST antibody in assay buffer. The Bfl-1/Th-Ab working solution contained 5 nM Bfl-1 in Th-Ab assay buffer. The solution was prepared fresh and kept on ice prior to use. The FITC-Bid working solution contained 5.6 nM FITC-Bid in assay buffer.
For the Bfl-1 TR-FRET dose-response screening protocol, dose-response curves contained 10 concentrations of compounds obtained using 2-fold serial dilution. Compounds were serially diluted in 100% DMSO, and then diluted with water to 10% final DMSO concentration. A 4 μl aliquot of compounds in 10% DMSO was transferred into columns 3-22 of Greiner 384-well white small-volume plates. Columns 1-2 and 23-24 contained 4 μL of 10% DMSO.
Columns 1-2 were reserved for positive controls, and 8 μL of Th-Ab buffer was added using a WellMate bulk dispenser (Matrix). An aliquot of 8 μL of Bfl-1/Th-Ab working solution was added to columns 3-24 of Greiner 384 well white plates using a WellMate bulk dispenser (Matrix). Columns 23-24 represented negative control wells. Plates were incubated for 1 h at 4° C. An 8 μL aliquot of freshly prepared FITC-Bid working solution was added to the whole plate using WellMate bulk dispenser (Matrix). Plates were incubated for 4 h at room temperature protected from direct light. Fluorescence was measured on the M5 plate reader (excitation: 340 nm, emission: 490 and 520 nm, cutoff: 475 and 515 nm, respectively) in Time Resolved (TR) mode with signal integrated for 1 ms after initial delay of 0.1 ms. TR-FRET signal was calculated as the ratio of TR-Fluorescence at 520 nm to TR-Fluorescence at 490 nm. Data analysis was performed using a sigmoidal dose-response equation through non-linear regression.

[3] = Tables 3-5, read-out: Bfl-1 FP IC50
[4] = Tables 3-5, read-out: Bfl-1 TR FRET IC50
[5] = Tables 7-8, Avg where the cell lists several determinations, read-out: Bfl-1 FPA IC50
[6] = Tables 7-8, Avg where the cell lists several determinations, read-out: Bfl-1 TR-FRET IC50
[7] = Tables 7-8, Avg where the cell lists several determinations
[8] = Tables 7-8, single values listed before the Avg, read-out: Bfl-1 FPA IC50 (uM), individual determinations
[9] = Tables 7-8, single values listed before the Avg, read-out: Bfl-1 TR-FRET IC50 (uM), individual determinations

Structure (SMILES)	IC50 (Bfl-1 [1]; [3])	IC50 (Bfl-1 [2]; [4])	IC50 (Bfl-1 [1]; [5])	IC50 (Bfl-1 [2]; [6])	further results
Cc1ccc(Cl)c(N2C(=O)C(Cl)=C(N3CCN(C)CC3)C2=O)c1Cl [MLS-0090832]	23.9 µM	11.1 µM	–	–	–
CN1CCN(C2=C(Cl)C(=O)N(c3c(Cl)cccc3Cl)C2=O)CC1 [MLS-0090830]	13.7 µM	3.72 µM	–	–	–
COc1ccc(N2C(=O)C(Cl)=C(Nc3c(C)n(C)n(-c4ccccc4)c3=O)C2=O)cc1 [Compound 3453-0809]	–	–	82.2 µM	> 100 µM	–
O=C1C(Cl)=C(Nc2ccccc2)C(=O)N1c1ccc(Cl)c(Cl)c1 [MLS-0067128]	–	–	–	–	Bfl-1 FP IC50 (uM) (Bfl-1 [1]; Tables 3-5): no fit; Bfl-1 TR FRET IC50 (uM) (Bfl-1 [2]; Tables 3-5): no fit
CCOC(=O)CCS(=O)(=O)c1nc(-c2ccccc2)cc(C(F)(F)F)n1 [Compound 7914223]	–	–	7.9 µM	4 µM	–
CN1CCN(C2=C(Cl)C(=O)N(c3ccccc3Cl)C2=O)CC1 [MLS-0090833]	2.16 µM	1.45 µM	–	–	–
Cc1cc(NC(=O)CCS(=O)(=O)c2nc(-c3ccccc3)cc(C(F)(F)F)n2)no1 [Compound 7979496]	–	–	14.6 µM	9.2 µM	–
O=C1C(Cl)=C(N2CCCCC2)C(=O)N1c1ccc(Cl)c(Cl)c1 [MLS-0066990]	–	1.3 µM	–	–	Bfl-1 FP IC50 (uM) (Bfl-1 [1]; Tables 3-5): no fit
O=C1C(Cl)=C(N2CCN(c3ncccn3)CC2)C(=O)N1c1ccc(Cl)c(Cl)c1 [MLS-0090868]	1.9 µM	2.46 µM	–	–	–
C[C@@H]1CN(C2=C(Cl)C(=O)N(c3ccc(Cl)c(Cl)c3)C2=O)CCN1 [MLS-0090857]	1.16 µM	1.03 µM	–	–	–
COc1ccccc1-c1cc(C(F)(F)F)nc(S(=O)(=O)CCCC(=O)N2CCOCC2)n1 [Compound 7990929]	–	–	21.5 µM	19.1 µM	–
COc1ccccc1-c1cc(C(F)(F)F)nc(S(=O)(=O)CCCC(=O)Nc2cc(C)on2)n1 [Compound C071-0415]	–	–	–	–	Bfl-1 FPA IC50 (uM) (Bfl-1 [1]; [7]): nodisplacement; Bfl-1 TR-FRET IC50 (uM) (Bfl-1 [2]; [7]): nodisplacement
CS(=O)(=O)c1nc(-c2ccccc2)cc(C(F)(F)F)n1 [Compound C164-0003]	–	–	–	–	Bfl-1 FPA IC50 (uM) (Bfl-1 [1]; [7]): nodisplacement; Bfl-1 TR-FRET IC50 (uM) (Bfl-1 [2]; [7]): nodisplacement
CCOC(=O)CS(=O)(=O)c1nc(-c2ccc(F)cc2)cc(C(F)(F)F)n1 [Compound 7979975]	–	–	–	1.78 µM	IC50 (Bfl-1 [1]; [8]): 1.98 µM and 1.27 µM and 0.695 µM and 1.72 µM and 0.866 µM and 3.33 µM and 4.4 µM and 6.43 µM; IC50 (Bfl-1 [2]; [9]): 1.37 µM and 0.59 µM and 1.5 µM and 2.79 µM and 1.03 µM and 3.41 µM
C[C@H]1CN(C2=C(Cl)C(=O)N(c3ccc(Cl)c(Cl)c3)C2=O)CCN1 [MLS-0090858]	1.32 µM	1.25 µM	–	–	–
CC(C)c1nnc(NC(=O)CCS(=O)(=O)c2nc(-c3cccs3)cc(C(F)(F)F)n2)s1 [ASN05990586]	–	–	11.3 µM	5.3 µM	–
O=C1C(Cl)=C(N2CCN(Cc3ccccc3)CC2)C(=O)N1c1ccc(Cl)c(Cl)c1 [MLS-0090866]	1.62 µM	1.64 µM	–	–	–
COc1ccccc1-c1cc(C(F)(F)F)nc(S(=O)(=O)CCCC(=O)NC(C)C)n1 [Compound C071-0355]	–	–	–	–	Bfl-1 FPA IC50 (uM) (Bfl-1 [1]; [7]): nodisplacement; Bfl-1 TR-FRET IC50 (uM) (Bfl-1 [2]; [7]): nodisplacement
O=C1C(Cl)=C(N2CCN(CCO)CC2)C(=O)N1c1ccc(Cl)c(Cl)c1 [MLS-0090874]	0.56 µM	0.59 µM	–	–	–
O=C1C(Cl)=C(N2CCCC2)C(=O)N1c1ccc(Cl)c(Cl)c1 [MLS-0067126]	–	–	–	–	Bfl-1 FP IC50 (uM) (Bfl-1 [1]; Tables 3-5): no fit; Bfl-1 TR FRET IC50 (uM) (Bfl-1 [2]; Tables 3-5): no fit

Structure (SMILES)	IC50 (Bfl-1 [1]; [3])	IC50 (Bfl-1 [2]; [4])	IC50 (Bfl-1 [1]; [5])	IC50 (Bfl-1 [2]; [6])	further results
CN1CCN(C2CC(=O)N(c3ccc(Cl)c(Cl)c3)C2=O)CC1 (stereo not drawn) [MLS-0066991]	–	–	–	–	Bfl-1 FP assay, activity in words (Bfl-1 [1]): inactive; Bfl-1 TR-FRET assay, activity in words (Bfl-1 [2]): inactive
CN1CCN(C2=C(Cl)C(=O)N(c3cccc(Cl)c3Cl)C2=O)CC1 [MLS-0090831]	8.74 µM	2.56 µM	–	–	–
CN1CCN(C2=C(Cl)C(=O)N(c3cccc(Cl)c3)C2=O)CC1 [MLS-0090834]	2.15 µM	1.17 µM	–	–	–
COc1ccc(-c2cc(C(F)(F)F)nc(S(C)(=O)=O)n2)c(OC)c1 [Compound C164-0014]	–	–	25.1 µM	6.38 µM	IC50 (Bfl-1 [1]; [8]): 40.7 µM and 5.92 µM and 27.2 µM and 28.8 µM and 22.9 µM; IC50 (Bfl-1 [2]; [9]): 5.29 µM and 3.73 µM and 10.1 µM
CN1CCN(C2=C(Cl)C(=O)N(c3cc(Cl)cc(Cl)c3)C2=O)CC1 [MLS-0090828]	2.44 µM	1.66 µM	–	–	–
O=C1C(Cl)=C(N2CCN(Cc3ccc4c(c3)OCO4)CC2)C(=O)N1c1ccc(Cl)c(Cl)c1 [MLS-0090865]	4.07 µM	2.14 µM	–	–	–
CCN1CCN(C2=C(Cl)C(=O)N(c3ccc(Cl)c(Cl)c3)C2=O)CC1 [MLS-0090860]	1.67 µM	0.97 µM	–	–	–
COCC(C)NC(=O)CCS(=O)(=O)c1nc(-c2ccc(OC)cc2)cc(C(F)(F)F)n1 (stereo not drawn) [BAS03664947]	–	–	20.6 µM	19.6 µM	–
O=C1C(Cl)=C(N2CCN(C/C=C/c3ccccc3)CC2)C(=O)N1c1ccc(Cl)c(Cl)c1 [MLS-0090859]	0.59 µM	0.73 µM	–	–	–
COCCNC1=C(Cl)C(=O)N(c2ccc(Cl)c(Cl)c2)C1=O [MLS-0067127]	12.6 µM	4.96 µM	–	–	–
CN1CCN(C2=CC(=O)N(c3ccc(Cl)cc3)C2=O)CC1 [MLS-0066987]	–	–	–	–	Bfl-1 FP assay, activity in words (Bfl-1 [1]): inactive; Bfl-1 TR-FRET assay, activity in words (Bfl-1 [2]): inactive
CC1C(=O)NCCN1C1=C(Cl)C(=O)N(c2ccc(Cl)c(Cl)c2)C1=O (stereo not drawn) [MLS-0090884]	5.63 µM	2.03 µM	–	–	–
O=C1C(Cl)=C(N2CCOCC2)C(=O)N1c1ccc(Cl)c(Cl)c1 [MLS-0067124]	1.41 µM	–	–	–	IC50 (Bfl-1 [1]; text b265, read-out: IC50 in the FP assay): 1.4 µM; IC50 (Bfl-1 [2]; text b265, read-out: IC50 in the TR-FRET assay): 1.14 µM
COc1ccccc1-c1cc(C(F)(F)F)nc(S(=O)(=O)CCCC(=O)N2CCCCC2C)n1 (stereo not drawn) [Compound C071-0367]	–	–	14.7 µM	12.8 µM	–
CN1CCN(C2=C(Cl)C(=O)N(c3ccc(Cl)cc3Cl)C2=O)CC1 [MLS-0090829]	2.62 µM	1.36 µM	–	–	–
CS(=O)(=O)c1nc(-c2cccs2)cc(C(F)(F)F)n1 [Compound C164-0005]	–	–	6.3 µM	15.6 µM	–
Cc1cc(NC(=O)CCCS(=O)(=O)c2nc(-c3cccs3)cc(C(F)(F)F)n2)no1 [Compound C071-0649]	–	–	40.4 µM	11.4 µM	–
CS(=O)(=O)c1nc(-c2ccco2)cc(C(F)(F)F)n1 [Compound C164-0006]	–	–	7.2 µM	6 µM	–
CCOC(=O)CS(=O)(=O)c1nc(-c2ccccc2)cc(C(F)(F)F)n1 [Compound 7663066]	–	–	4.64 µM	2.91 µM	IC50 (Bfl-1 [1]; [8]): 2.63 µM and 2.4 µM and 5.42 µM and 8.1 µM; IC50 (Bfl-1 [2]; [9]): 1.18 µM and 4.63 µM
